Data as given in patent US9458104B2 (priority 2012, dated 2016).

What was measured:
[1] = biological target: T1, RORγ ligand binding domain (LBD) (Homo sapiens, UniProt P51449); assay: TR-FRET Activity Assay (ligand sensing assay, RORγ-LBD / coactivator peptide interaction); type: biochemical
T1 construct: made in house; host or cells: E. coli BL-21 (BL3), vector pDEST15
T1 sequence (P51449 269-508 limits assumed): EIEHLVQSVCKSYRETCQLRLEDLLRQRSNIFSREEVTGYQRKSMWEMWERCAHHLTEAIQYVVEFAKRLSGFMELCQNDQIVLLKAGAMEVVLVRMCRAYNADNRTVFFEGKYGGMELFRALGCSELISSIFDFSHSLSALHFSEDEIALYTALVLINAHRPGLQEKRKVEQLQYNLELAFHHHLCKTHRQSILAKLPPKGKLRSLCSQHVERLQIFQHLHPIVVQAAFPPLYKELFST
In short: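 GST-RORγ LBD expressed in bacteria, 20–60 ng/well, with biotinylated coactivator peptide 200–600 nM, streptavidin-APC and Eu-anti-GST. Buffer: 20 mM Tris-HCl pH 6.8, 60 mM KCl, 1 mM DTT, 5 mM MgCl2, BSA; 1% DMSO. LANCE TR-FRET 665/615 nm ratio; IC50 from four-parameter logistic fit.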

RORγ = biological target: T2, RORγ (UniProt P51449); type: cell-based; conditions: 293T cells, 16 h; for pIC50 (FF): firefly (FF) luciferase; for pIC50 (REN): renilla normalised (RENnorm) luciferase
T2 construct: hRORg-LBD|aa259-518|NP_005051.2; hRORgt|aa1-497|NP_001001523 (RORg, t isoform, 497aa); mRORg-LBD|aa264-516|NP_035411
T2 sequence (P51449 1-518): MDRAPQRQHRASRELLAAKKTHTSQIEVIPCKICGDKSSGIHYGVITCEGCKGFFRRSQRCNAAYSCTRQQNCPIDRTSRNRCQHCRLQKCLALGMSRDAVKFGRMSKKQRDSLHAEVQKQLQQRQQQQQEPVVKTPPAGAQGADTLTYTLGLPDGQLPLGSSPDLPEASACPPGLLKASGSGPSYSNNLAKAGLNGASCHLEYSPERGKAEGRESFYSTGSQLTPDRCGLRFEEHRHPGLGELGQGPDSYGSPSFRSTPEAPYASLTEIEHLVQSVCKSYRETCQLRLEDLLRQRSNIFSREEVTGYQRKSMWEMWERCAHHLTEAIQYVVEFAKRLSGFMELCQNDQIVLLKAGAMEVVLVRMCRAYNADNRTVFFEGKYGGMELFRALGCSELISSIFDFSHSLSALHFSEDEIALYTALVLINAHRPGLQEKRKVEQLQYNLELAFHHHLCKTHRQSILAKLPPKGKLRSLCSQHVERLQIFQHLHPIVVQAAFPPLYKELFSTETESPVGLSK

Row | SMILES | IC50 [1] | pIC50 (FF) (RORγ) | pIC50 (REN) (RORγ)
1 | Cc1c(C(=O)N[C@H]2C[C@H](C(=O)O)C2)cn(-c2cc(C(C)(C)C)cc(C3(C)CC3)c2)c1SC1CCCCC1 [Example 21, trans-3-(1-(3-(tert-Butyl)-5-(1-methylcyclopropyl)phenyl)-5-(cyclohexylthio)-4-methyl-1H-pyrrole-3-carboxamido)cyclobutanecarboxylic acid] | 794 nM | 8.0 | 8.2
2 | Cc1c(C(=O)N[C@H]2C[C@H](C(=O)O)C2)cn(-c2cc(C(C)(C)C)cc(C3(C)CC3)c2)c1[S+]([O-])C1CCCCC1 (stereo partly drawn) [Example 22, trans-3-(1-(3-(tert-Butyl)-5-(1-methylcyclopropyl)phenyl)-5-(cyclohexylsulfinyl)-4-methyl-1H-pyrrole-3-carboxamido)cyclobutanecarboxylic acid] | 2000 nM | 7.1 | 7.1
3 | Cc1c(C(=O)N[C@H]2C[C@H](C(=O)O)C2)cn(-c2cc(C(C)(C)C)cc(C3(C)CC3)c2)c1S(=O)(=O)C1CCCCC1 [Example 23, trans-3-(1-(3-(tert-Butyl)-5-(1-methylcyclopropyl)phenyl)-5-(cyclohexylsulfonyl)-4-methyl-1H-pyrrole-3-carboxamido)cyclobutanecarboxylic acid] | 1580 nM | 6.4 | 6.5
4 | Cc1c(C(=O)NCCC(C)(C)C(=O)O)c(F)n(-c2ccc(S(=O)(=O)NC(C)(C)C)c(C(F)(F)F)c2)c1CC1CCCCC1 [Example 25, 4-(1-(4-(N-(tert-Butyl)sulfamoyl)-3-(trifluoromethyl)phenyl)-5-(cyclohexylmethyl)-2-fluoro-4-methyl-1H-pyrrole-3-carboxamido)-2,2-dimethylbutanoic acid] | 631 nM | 8.3 | 8.3
5 | Cn1c(C(=O)N[C@H]2C[C@H](C(=O)O)C2)cc(-c2cc(C(C)(C)C)cc(C3(C)CC3)c2)c1C(=O)C1CCCCC1 [Example 26, trans-3-(4-(3-(tert-Butyl)-5-(1-methylcyclopropyl)phenyl)-5-(cyclohexanecarbonyl)-1-methyl-1H-pyrrole-2-carboxamido)cyclobutanecarboxylic acid] | 501 nM | 8.5 | 8.5
6 | CC(C)(C)c1cc(-c2cc(C(=O)N[C@H]3C[C@H](C(=O)O)C3)nn2CC2CCCCC2)cc(C2(C)CC2)c1 [Example 100, (trans)-3-(5-(3-(tert-Butyl)-5-(1-methylcyclopropyl)phenyl)-1-(cyclohexylmethyl)-1H-pyrazole-3-carboxamido)cyclobutanecarboxylic acid] | 501 nM | 6.9 | 7.0
7 | CCNC(=O)c1cc(CC2CCCCC2)n(-c2cc(C(C)(C)C)cc(C(C)(C)C)c2)n1 [Example 102/1] | 631 nM | 5.9 | 6.0
8 | CC1(CNC(=O)c2nn(-c3cc(C(C)(C)C)nc(C(C)(C)C)c3)c(CC3CCCCC3)c2Cl)COC1 [Example 105, 4-Chloro-5-(cyclohexylmethyl)-1-(2,6-di-tert-butylpyridin-4-yl)-N-((3-methyloxetan-3-yl)methyl)-1H-pyrazole-3-carboxamide] | 6310 nM | < 4.7 | < 4.7
9 | CC(C)(C)NS(=O)(=O)c1ccc(-c2c(Cl)c(C(=O)N[C@H]3C[C@H](C(=O)O)C3)nn2CC2CCCCC2)cc1C(F)(F)F [Example 108, trans-3-(5-(4-(N-(tert-Butyl)sulfamoyl)-3-(trifluoromethyl)phenyl)-4-chloro-1-(cyclohexylmethyl)-1H-pyrazole-3-carboxamido)cyclobutanecarboxylic acid] | 501 nM | 6.4 | 6.4
10 | CC(C)(C)NS(=O)(=O)c1ccc(-c2c(F)c(C(=O)NCCC(C)(C)C(=O)O)nn2CC2CCCCC2)cc1C(F)(F)F [Example 109, 4-(5-(4-(N-(tert-Butyl)sulfamoyl)-3-(trifluoromethyl)phenyl)-1-(cyclohexylmethyl)-4-fluoro-1H-pyrazole-3-carboxamido)-2,2-dimethylbutanoic acid] | 501 nM | 6.7 | 6.8
11 | CC(C)(C)NS(=O)(=O)c1ccc(-c2cc(C(=O)N[C@H]3C[C@H](C(=O)O)C3)nn2CC2CCCCC2)c(Cl)c1Cl [Example 112, trans-3-(5-(4-(N-(tert-Butyl)sulfamoyl)-2,3-dichlorophenyl)-1-(cyclohexylmethyl)-1H-pyrazole-3-carboxamido)cyclobutanecarboxylic acid] | 316 nM | 6.9 | 6.9
12 | CC(C)(C)NS(=O)(=O)c1ccc(-c2cc(C(=O)NC3CCS(=O)(=O)CC3)nn2CC2CCCCC2)c(Cl)c1Cl [Example 112/1] | 501 nM | 7.5 | 7.6
13 | Cc1c(C(=O)N[C@H]2C[C@H](C(=O)O)C2)cn(-c2cc(C(C)(C)C)cc(C3(C)CC3)c2)c1C(=O)c1ccccc1 [Example 301, (trans)-3-(5-Benzoyl-1-(3-(tert-butyl)-5-(1-methylcyclopropyl)phenyl)-4-methyl-1H-pyrrole-3-carboxamido)cyclobutanecarboxylic acid] | 501 nM | 6.7 | 6.8
14 | CCS(=O)(=O)c1ccc(CNC(=O)c2cc(-c3ccc(S(=O)(=O)NC(C)(C)C)c(C(F)(F)F)c3)n(CC3CCCCC3)c2C)cc1 [Example 302, 5-(4-(N-(tert-Butyl)sulfamoyl)-3-(trifluoromethyl)phenyl)-1-(cyclohexylmethyl)-N-(4-(ethylsulfonyl)benzyl)-2-methyl-1H-pyrrole-3-carboxamide] | 6.31 nM | 7.6 | 7.8
15 | Cc1c(C(=O)NC2CCOCC2)cc(-c2ccc(S(=O)(=O)NC(C)(C)C)c(C(C)(C)C)c2)n1CC(C)(C)C [Example 302/1] | 1580 nM | 6.3 | 6.4
16 | CC(C)(C)c1cc(-c2cc(C(N)=O)[nH]c2CC2CCCCC2)cc(C(C)(C)C)c1 [Example 303, 5-(Cyclohexylmethyl)-4-(3,5-di-tert-butylphenyl)-1H-pyrrole-2-carboxamide] | 501 nM | < 4.7 | < 4.7
17 | Cn1c(C(N)=O)cc(-c2cc(C(C)(C)C)cc(C(C)(C)C)c2)c1CC1CCCCC1 [Example 304, 5-(Cyclohexylmethyl)-4-(3,5-di-tert-butylphenyl)-1-methyl-1H-pyrrole-2-carboxamide] | 126 nM | 6.1 | 6.1
18 | Cc1c(C(N)=O)cn(-c2cc(C(C)(C)C)cc(C(C)(C)C)c2)c1CC1CCCCC1 [Example 305, 5-(Cyclohexylmethyl)-1-(3,5-di-tert-butylphenyl)-4-methyl-1H-pyrrole-3-carboxamide] | 200 nM | 6.3 | 6.3
19 | CC(C)(C)c1cc(-c2nc(C(N)=O)nn2CC2CCCCC2)cc(C(C)(C)C)c1O [Example 306, 1-(Cyclohexylmethyl)-5-(3,5-di-tert-butyl-4-hydroxyphenyl)-1H-1,2,4-triazole-3-carboxamide] | 794 nM | 5.9 | 6.0
20 | CC(C)(C)c1cc(-c2nc(C(=O)NC3CC3)nn2CC2CCCCC2)cc(C(C)(C)C)c1 [Example 307, 1-(Cyclohexylmethyl)-N-cyclopropyl-5-(3,5-di-tert-butylphenyl)-1H-1,2,4-triazole-3-carboxamide] | 794 nM | 5.9 | 6.1
